Patent US20210401867A1, “PHOTOSENSITIZERS AND METHOD OF TREATING CANCER USING THE SAME” (Cheng-Wen Wu, priority 2018, published 2021)

How the values were obtained:
Type in all cases: cell-based, human
[1] = test system: FaDu cells; experiment: flow cytometry analysis of BrdU/IdU DNA incorporation in FaDu cells; conditions: 24 hours
Procedure: Referring to FIG. 7A, a flow cytometry analysis of FaDu cells without BrdU treatment is provided in accordance with an exemplary embodiment of the present disclosure. FaDu cells are analyzed by flow cytometry using BrdU Flow Kits (BD Pharmingen), in absence of BrdU. FaDu cells are trypsinized, washed, fixed, permeablized, blocked, and then treated with DNase I (5 U/10^6 cells/100 μL) for 1 hour at 37° C. FaDu cells are then hybridized with anti-BrdU antibodies for 1 hour at room temperature. After several washes, FaDu cells are analyzed for fluorescent signals with LSR II Analytic Flow Cytometer (BD Biosciences). […] Referring to FIGS. 7B-D, flow cytometry analyses of FaDu cells when treated with BrdU are provided in accordance with an exemplary embodiment of the present disclosure. In FIGS. 7B-D, FaDu cells are analyzed by flow cytometry with the same experiment procedures for FIG. 7A. FaDu cells in FIGS. 7B, 7C, and 7D are respectively treated with 0.5 μM BrdU, 1 μM BrdU, and 10 μM BrdU for 24 hours. […] The DNA incorporation efficiency of BrdU is 1 μM to more than 90% of FaDu cells, therefore 1 μM would be used in the subsequent experiment as an optimized dosage of BrdU. Referring to FIG. 8A, a flow cytometry analysis of FaDu cells without IdU treatment is provided in accordance with an exemplary embodiment of the present disclosure. FaDu cells are analyzed by flow cytometry using BrdU Flow Kits (BD Pharmingen), in absence of IdU. FaDu cells are treated with similar experiment procedures as in FIG. 7A, but anti-BrdU antibodies are replaced with anti-IdU antibodies. For the detection of IdU-incorporated cells, FaDu cells being treated by anti-IdU antibodies are then hybridized with a secondary antibody conjugated by proper fluorescent dye for 1 hour at room temperature. […] Referring to FIGS. 8B-D, flow cytometry analyses of FaDu cells when treated with IdU are provided in accordance with an exemplary embodiment of the present disclosure. FaDu cells are analyzed by flow cytometry with similar experiment procedures as in 7A. […] The DNA incorporation efficiency of IdU is 10 μM to more than 90% of FaDu cells, therefore 10 μM would be used in the subsequent experiment as an optimized dosage of IdU.

[2] = test system: FaDu cells; experiment: in vitro cell viability of FaDu cells; conditions: for synergy of combination with RS2000 versus RS2000 alone: conventional X-ray RS2000, FaDu cells
[3] = test system: FaDu cells; experiment: colony forming assay of FaDu cells
Procedure: (§1) In the following examples, FaDu cells are used in cell viability tests and colony forming assays. FaDu cells (ATCC HTB-43) is a human head-and-neck cell line with squamous phenotype. FaDu cells used in the following examples are cultured in DMEM medium supplemented with 10% fetal bovine serum (FBS) and 1% penicillin/streptomycin, in a humidified incubator maintained at 37° C. and 5% CO2.
Referring to FIGS. 9A-C, an in vitro cell viability chart of FaDu cells when treated with BrdU alone, NR alone, and BrdU and NR, is provided in accordance with an exemplary embodiment of the present disclosure. NR treatments in FIGS. 9A, 9B, and 9C are similar with the experiment procedures for FIG. 6. In samples where FaDu cells are treated with BrdU and NR, FaDu cells are incubated with BrdU for 24 hours before irradiated with NR. Referring to FIG. 9B, a colony forming assay result of FaDu cells after the treatments described in […], is provided in accordance with an exemplary embodiment of the present disclosure. The colony forming assay in FIG. 9B are proceeded as following: FaDu cells treated by different regimens are grouped and seeded in 6-well-plates with 1000 cells in each of the well and cultured for 14 days; the culture medium was replaced every 3 to 4 days; in the end of the experiment, the cells are washed twice with PBS and fixed with 4% paraformaldehyde for 15 minutes and stained with 0.1% crystal violet. Referring to FIG. 9C, a quantitative result of the colony forming assay in FIG. 9B is provided in accordance with an exemplary embodiment of the present disclosure. In FIG. 9C, the results of the colony forming assay are quantified by microscopic examination by stereomicroscope.

[4] = test system: FaDu cells; experiment: in vitro cell viability of FaDu cells
Procedure: as §1
Referring to FIG. 4, an in vitro cell viability chart of FaDu cells when treated with BrdU is provided in accordance with an exemplary embodiment of the present disclosure. FaDu cells are treated with different dosages of BrdU for 24 hours and then FaDu cells are analyzed daily for cell viability. FaDu cells are derived from pharynx squamous cell carcinoma of human, and are resistant to radiation. 3×10^5 FaDu cells are seeded in 6-cm-plates. After 24 hours, different dosages of BrdU are added into the culture medium and incubated with the FaDu cells for another 24 hours.
Referring to FIG. 5, an in vitro cell viability chart of FaDu cells when treated with IdU is provided in accordance with an exemplary embodiment of the present disclosure. FaDu cells are treated with different dosages of IdU for 24 hours and then FaDu cells are analyzed for cell viability. FaDu cells are seeded in plate and treated with IdU by similar experiment procedures with FIG. 4.
Referring to FIG. 6, an in vitro viability chart of FaDu cells when irradiated by NR is provided in accordance with an exemplary embodiment of the present disclosure. FaDu cells are treated with different radiation doses of NanoRay radiation (NR). FaDu cells are trypsinized and collected by centrifugation. The centrifuged FaDu cells are then re-suspended in PBS in a 1.5-ml tube with 5×10^4 cells in 20 μL. The tube containing centrifuged FaDu cells are then subjected to different radiation doses of NR. […] From FIGS. 4, 5 and 6, it is concluded that an optimized dosage for BrdU and IdU for in vivo experiments would be 10 μM, and the optimized radiation dose for NR is within 4 Gy.

[5] = 10 μM IdU combined with 1 Gy of 33 keV NR

Row | Compound | FaDu cells labeled ([1]; IdU 0.5 μM as printed (FIG. 8B)) | FaDu cells labeled ([1]; more than 10 μM of IdU) | synergy of combination with RS2000 versus RS2000 alone [2] | colony forming inhibition versus IdU or NR alone [3, 5] | cytotoxicity of the combination with NR [4] | cell viability versus IdU or NR alone [4, 5] | FaDu cells labeled ([1]; 0.5 μM BrdU) | FaDu cells labeled ([1]; more than 1 μM of BrdU) | cell viability ([2]; 1 μM BrdU and 1Gy of RS2000 (conventional X-ray)) | colony forming inhibition ([3]; 1 μM BrdU combined with 1 Gy of 14 keV NR) | toxicity ([4]; FaDu cells, 1 μM BrdU)
1 | O=c1[nH]c(=O)n([C@H]2C[C@H](O)[C@@H](CO)O2)cc1I [IdU, iododeoxyuridine] | about 84% | more than 90% | does not have synergistic effects | higher | strong synergistic cytotoxicity | lower | – | – | – | – | –
2 | O=c1[nH]c(=O)n([C@H]2C[C@H](O)[C@@H](CO)O2)cc1Br [BrdU, bromodeoxyuridine] | – | – | does not have synergistic effects | – | strong synergistic cytotoxicity | – | about 83% | more than 90% | lower cell viability | 57.5% | almost no toxicity
